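A five-concentration, 48-hour dose response in 96-well plates underlies each endpoint, interpolated linearly between surrounding concentrations. GI50 marks 50% less growth.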 The source made the active and inactive calls. Cut-off read from the data, not from the text of the source: active = GI50 up to about 1.1 µM and inactive = higher.
Key:
Assay in all cases: NCI-60 cell line screen, 48 h
SNB-75 = tested on: SNB-75
SK-OV-3 = tested on: SK-OV-3
SF-268 = tested on: SF-268
MDA-MB-435 = tested on: MDA-MB-435
UO-31 = tested on: UO-31
OVCAR-8 = tested on: OVCAR-8
UACC-62 = tested on: UACC-62
NCI-H522 = tested on: NCI-H522
NCI/ADR-RES = tested on: NCI/ADR-RES
KM12 = tested on: KM12
NCI-H23 = tested on: NCI-H23
OVCAR-3 = tested on: OVCAR-3
BT-549 = tested on: BT-549
SK-MEL-5 = tested on: SK-MEL-5
RXF 393 = tested on: RXF 393
MDA-MB-231 = tested on: MDA-MB-231
ACHN = tested on: ACHN
A498 = tested on: A498
SW-620 = tested on: SW-620
OVCAR-5 = tested on: OVCAR-5
DU-145 = tested on: DU-145
MCF7 = tested on: MCF7
SN12C = tested on: SN12C
MDA-N = tested on: MDA-N
TK-10 = tested on: TK-10
HCC 2998 = tested on: HCC 2998
HOP-92 = tested on: HOP-92
SR = tested on: SR
SK-MEL-28 = tested on: SK-MEL-28
SK-MEL-2 = tested on: SK-MEL-2
CCRF-CEM = tested on: CCRF-CEM
SNB-19 = tested on: SNB-19
Hs-578T = tested on: Hs-578T
786-0 = tested on: 786-0
RPMI-8226 = tested on: RPMI-8226
COLO 205 = tested on: COLO 205
PC-3 = tested on: PC-3
Malme-3M = tested on: Malme-3M
SF-295 = tested on: SF-295
A549 = tested on: A549
IGROV-1 = tested on: IGROV-1
HCT-15 = tested on: HCT-15
SF-539 = tested on: SF-539
MOLT-4 = tested on: MOLT-4
UACC-257 = tested on: UACC-257
LOX IMVI = tested on: LOX IMVI
T47D = tested on: T47D
U-251 = tested on: U-251
K562 = tested on: K562
HT-29 = tested on: HT-29
NCI-H460 = tested on: NCI-H460
CAKI-1 = tested on: CAKI-1
EKVX = tested on: EKVX
NCI-H226 = tested on: NCI-H226
HL-60 = tested on: HL-60
HCT-116 = tested on: HCT-116
M14 = tested on: M14
HOP-62 = tested on: HOP-62
OVCAR-4 = tested on: OVCAR-4

CC(C)(C)OC(=O)N1CCC2(CC1)C(=O)NCN2c1ccccc1
GI50 (SNB-75): > 100 µM (inactive)
GI50 (SK-OV-3): > 100 µM (inactive)
GI50 (SF-268): > 100 µM (inactive)
GI50 (MDA-MB-435): > 100 µM (inactive)
GI50 (UO-31): > 100 µM (inactive)
GI50 (OVCAR-8): > 100 µM (inactive)
GI50 (UACC-62): > 100 µM (inactive)
GI50 (NCI-H522): > 100 µM (inactive)
GI50 (NCI/ADR-RES): > 100 µM (inactive)
GI50 (KM12): > 100 µM (inactive)
GI50 (NCI-H23): > 100 µM (inactive)
GI50 (OVCAR-3): > 100 µM (inactive)
GI50 (BT-549): > 100 µM (inactive)
GI50 (SK-MEL-5): > 100 µM (inactive)
GI50 (RXF 393): > 100 µM (inactive)
GI50 (MDA-MB-231): > 100 µM (inactive)
GI50 (ACHN): > 100 µM (inactive)
GI50 (A498): > 100 µM (inactive)
GI50 (SW-620): > 100 µM (inactive)
GI50 (OVCAR-5): > 100 µM (inactive)
GI50 (DU-145): > 100 µM (inactive)
GI50 (MCF7): > 100 µM (inactive)
GI50 (SN12C): > 100 µM (inactive)
GI50 (MDA-N): > 100 µM (inactive)
GI50 (TK-10): > 100 µM (inactive)
GI50 (HCC 2998): > 100 µM (inactive)
GI50 (HOP-92): > 100 µM (inactive)
GI50 (SR): > 100 µM (inactive)
GI50 (SK-MEL-28): > 100 µM (inactive)
GI50 (SK-MEL-2): > 100 µM (inactive)
GI50 (CCRF-CEM): > 100 µM (inactive)
GI50 (SNB-19): > 100 µM (inactive)
GI50 (Hs-578T): > 100 µM (inactive)
GI50 (786-0): > 100 µM (inactive)
GI50 (RPMI-8226): > 100 µM (inactive)
GI50 (COLO 205): > 100 µM (inactive)
GI50 (PC-3): > 100 µM (inactive)
GI50 (Malme-3M): > 100 µM (inactive)
GI50 (SF-295): > 100 µM (inactive)
GI50 (A549): > 100 µM (inactive)
GI50 (IGROV-1): > 100 µM (inactive)
GI50 (HCT-15): > 100 µM
GI50 (SF-539): > 100 µM (inactive)
GI50 (MOLT-4): > 100 µM (inactive)
GI50 (UACC-257): > 100 µM (inactive)
GI50 (LOX IMVI): > 100 µM (inactive)
GI50 (T47D): > 100 µM (inactive)
GI50 (U-251): > 100 µM (inactive)
GI50 (K562): 77.8 µM (inactive)
GI50 (HT-29): > 100 µM (inactive)
GI50 (NCI-H460): > 100 µM (inactive)
GI50 (CAKI-1): > 100 µM (inactive)
GI50 (EKVX): > 100 µM (inactive)
GI50 (NCI-H226): > 100 µM (inactive)
GI50 (HL-60): 92.7 µM (inactive)
GI50 (HCT-116): > 100 µM (inactive)
GI50 (M14): > 100 µM (inactive)
GI50 (HOP-62): > 100 µM (inactive)
GI50 (OVCAR-4): > 100 µM (inactive)

C[N+](C)(C)c1ncnc2c1ncn2C1CC(O)C(CO)O1 (stereo not drawn)
GI50 (SNB-75): > 100 µM (inactive)
GI50 (SK-OV-3): > 100 µM (inactive)
GI50 (SF-268): > 100 µM (inactive)
GI50 (MDA-MB-435): > 100 µM (inactive)
GI50 (UO-31): > 100 µM (inactive)
GI50 (OVCAR-8): > 100 µM (inactive)
GI50 (UACC-62): > 100 µM (inactive)
GI50 (NCI-H522): > 100 µM (inactive)
GI50 (NCI/ADR-RES): > 100 µM (inactive)
GI50 (KM12): > 100 µM (inactive)
GI50 (NCI-H23): > 100 µM (inactive)
GI50 (OVCAR-3): > 100 µM (inactive)
GI50 (BT-549): > 100 µM (inactive)
GI50 (SK-MEL-5): > 100 µM (inactive)
GI50 (RXF 393): > 100 µM (inactive)
GI50 (MDA-MB-231): > 100 µM (inactive)
GI50 (ACHN): > 100 µM (inactive)
GI50 (A498): > 100 µM (inactive)
GI50 (SW-620): > 100 µM (inactive)
GI50 (OVCAR-5): > 100 µM (inactive)
GI50 (DU-145): > 100 µM (inactive)
GI50 (MCF7): > 100 µM (inactive)
GI50 (SN12C): > 100 µM (inactive)
GI50 (MDA-N): > 100 µM (inactive)
GI50 (TK-10): > 100 µM (inactive)
GI50 (HCC 2998): > 100 µM (inactive)
GI50 (HOP-92): > 100 µM (inactive)
GI50 (SR): > 100 µM (inactive)
GI50 (SK-MEL-28): > 100 µM (inactive)
GI50 (SK-MEL-2): > 100 µM (inactive)
GI50 (CCRF-CEM): > 100 µM (inactive)
GI50 (SNB-19): > 100 µM (inactive)
GI50 (Hs-578T): > 100 µM (inactive)
GI50 (786-0): > 100 µM (inactive)
GI50 (RPMI-8226): > 100 µM (inactive)
GI50 (COLO 205): > 100 µM (inactive)
GI50 (PC-3): > 100 µM (inactive)
GI50 (Malme-3M): > 100 µM (inactive)
GI50 (SF-295): > 100 µM (inactive)
GI50 (A549): > 100 µM (inactive)
GI50 (IGROV-1): > 100 µM (inactive)
GI50 (HCT-15): > 100 µM
GI50 (SF-539): > 100 µM (inactive)
GI50 (MOLT-4): > 100 µM (inactive)
GI50 (UACC-257): > 100 µM (inactive)
GI50 (LOX IMVI): > 100 µM (inactive)
GI50 (T47D): > 100 µM (inactive)
GI50 (U-251): > 100 µM (inactive)
GI50 (K562): > 100 µM (inactive)
GI50 (HT-29): > 100 µM (inactive)
GI50 (NCI-H460): > 100 µM (inactive)
GI50 (CAKI-1): > 100 µM (inactive)
GI50 (EKVX): > 100 µM (inactive)
GI50 (NCI-H226): > 100 µM (inactive)
GI50 (HL-60): > 100 µM (inactive)
GI50 (HCT-116): > 100 µM (inactive)
GI50 (M14): > 100 µM (inactive)
GI50 (HOP-62): > 100 µM (inactive)
GI50 (OVCAR-4): > 100 µM (inactive)

— ChEMBL document CHEMBL1201862, “PubChem BioAssay data set” (2004)
